Assay results published in patent US20230109717A1 (GAIA BioMedicine Inc., priority 2020, published 2023).

Tested on: highly active NK cells
Assay: Viability of freeze-thawed highly active NK cells (7-AAD staining, flow cytometry, FlowJo)
Details: collect. method 2
Description: The highly activated NK cells (1×10^5 cells/well) thawed under each condition were centrifuged on a 96-well plate (IWAKI, 4870-800SP), the supernatant was removed, and then a 7-amino-actinomycin D (7-AAD) solution diluted with PBS (Beckman Coulter, A 07704) was added to the cells to suspend them, and the suspension was incubated at room temperature (room temperature means 15 to 25° C., the same shall apply in the following experiments) for 20 minutes. The stained cells were measured by using a flow cytometer (BD LSR Fortessa, BD Biosciences).
The NK cells frozen for 48 hours or longer were thawed in a water bath at 37° C., and 1×10^5 cells were dispensed on a 96-well plate (IWAKI) immediately after the thawing. […] The cells dispensed immediately after thawing were centrifuged immediately after they were dispensed, and the cells of the other four groups were centrifuged after incubation of 3 hours, measurement was performed by the method for staining with 7-AAD described above, and the results were analyzed with the FlowJo software (FLOWJO, LLC) to calculate viable cell rates.
The NK cells frozen for 48 hours or longer were thawed at 37° C. in a water bath, and then 1×10^5 of the cells were dispensed on a 96-well plate immediately after the thawing. […] The cells dispensed immediately after thawing were centrifuged immediately after they were dispensed, and the cells of the other four groups were centrifuged after incubation of 3 hours, measurement was performed by the method for staining with 7-AAD described above, and the results were analyzed with the FlowJo software (FLOWJO, LLC) to calculate viable cell rates.
Then, measurement was performed by the method for staining with 7-AAD described above, and the results were analyzed with the FlowJo software. […] Then, measurement was performed by the method for staining with 7-AAD described above, and the results were analyzed with the FlowJo software. (8-3) The experiment was performed in the same manner as in (8-1), but (1) PBS, (2) Plasma-Lyte A, (3) Plasma-Lyte A containing 27.7 mEq/L of lactic acid (Nacalai Tesque, 20006-62), (4) Plasma-Lyte A containing 48.84 mg/L of MgSO4.7H2O (Nacalai Tesque, 21002-85), (5) Lactoringer, (6) Veen-F (Fuso Pharma), (7) Solita-T1 (AY Pharmaceuticals), (8) Solita-T3 (AY Pharmaceuticals), (9) 5% glucose injection solution (Terumo), and (10) RPMI medium were used as the solvents for dilution of thawed cells, and the cells were incubated at 37° C. for 3 hours. In the case of (3), lactic acid was added at the same concentration as the lactate concentration in Lactoringer, and neutrality of the solution was confirmed with litmus test paper. In the case of (4), MgSO4 was added at the same concentration as the MgSO4 concentration in HBSS. Measurement was then performed by the method for staining with 7-AAD described above, and the results were analyzed with the FlowJo software. (8-4) The experiment was performed in the same manner as in (8-2), but the cells were treated by using (1) PBS, (2) Plasma-Lyte A, (3) saline (OTSUKA NORMAL SALINE, Otsuka Pharmaceutical), (4) Bicanate (Otsuka Pharmaceutical), and (5) Solacet F (Terumo) as the solvents for dilution of thawed cells. Measurement was then performed by the method for staining with 7-AAD described above, and the results were analyzed with the FlowJo software. […] Immediately after completely thawed, the cells were diluted 10-fold in (1) Plasma-Lyte A, (2) saline, (3) RPMI 1640 medium, (4) Lactoringer, (5) 0.423 mM CaCl2 prepared in Plasma-Lyte A, and (6) 1.36 mM CaCl2, and left to stand at 37° C. for 3 hours. The CaCl2 concentration of (5) was the same as that in the RPMI 1640 medium, and the CaCl2 concentration of (6) was the same as that in Lactoringer. Measurement was then performed by the method for staining with 7-AAD described above, and the results were analyzed with the FlowJo software.

Measured: Viability

C[C@H](CCC(=O)NCCS(=O)(=O)O)[C@H]1CC[C@H]2[C@@H]3[C@@H](O)C[C@@H]4C[C@H](O)CC[C@]4(C)[C@H]3CC[C@]12C [TUDCA, tauroursodeoxycholic acid dihydrate]
A (“A” means 70% or higher): Exmp. 6, pretreatment KBM + 10 μM TUDCA 2 h, thawing PlasmaLyte R.T. 1 h, then KBM 2 h | Exmp. 6, pretreatment KBM + 10 μM TUDCA 2 h, thawing PlasmaLyte R.T. 3 h | Exmp. 6, pretreatment KBM + 30 μM TUDCA 2 h, thawing PlasmaLyte R.T. 1 h, then KBM 2 h | Exmp. 6, pretreatment KBM + 30 μM TUDCA 2 h, thawing PlasmaLyte R.T. 3 h | Exmp. 6, pretreatment KBM + 90 μM TUDCA 2 h, thawing PlasmaLyte R.T. 1 h, then KBM 2 h | Exmp. 6, pretreatment KBM + 90 μM TUDCA 2 h, thawing PlasmaLyte R.T. 3 h | Exmp. 6, pretreatment KBM + 270 μM TUDCA 2 h, thawing PlasmaLyte R.T. 1 h, then KBM 2 h | Exmp. 6, pretreatment KBM + 270 μM TUDCA 2 h, thawing PlasmaLyte R.T. 3 h | Exmp. 6, pretreatment KBM + 810 μM TUDCA 2 h, thawing PlasmaLyte R.T. 1 h, then KBM 2 h | Exmp. 6, pretreatment KBM + 810 μM TUDCA 2 h, thawing PlasmaLyte R.T. 3 h | Exmp. 7, pretreatment KBM + 266 μM TUDCA 2 h, thawing PlasmaLyte + IL-2, R.T. 1 h | Exmp. 7, pretreatment KBM + 266 μM TUDCA 2 h, thawing PlasmaLyte + IL-2, R.T. 1 h, then KBM 2 h | Exmp. 7, pretreatment KBM + 266 μM TUDCA 2 h, thawing PlasmaLyte + IL-2, R.T. 3 h | Exmp. 7, pretreatment KBM + 266 μM TUDCA 2 h, thawing PlasmaLyte R.T. 1 h | Exmp. 7, pretreatment KBM + 266 μM TUDCA 2 h, thawing PlasmaLyte R.T. 1 h, then KBM 2 h | Exmp. 7, pretreatment KBM + 266 μM TUDCA 2 h, thawing PlasmaLyte R.T. 3 h | Exmp. 7, pretreatment KBM + 800 μM TUDCA 2 h, thawing PlasmaLyte + IL-2, R.T. 1 h | Exmp. 7, pretreatment KBM + 800 μM TUDCA 2 h, thawing PlasmaLyte + IL-2, R.T. 1 h, then KBM 2 h | Exmp. 7, pretreatment KBM + 800 μM TUDCA 2 h, thawing PlasmaLyte + IL-2, R.T. 3 h | Exmp. 7, pretreatment KBM + 800 μM TUDCA 2 h, thawing PlasmaLyte R.T. 1 h | Exmp. 7, pretreatment KBM + 800 μM TUDCA 2 h, thawing PlasmaLyte R.T. 1 h, then KBM 2 h | Exmp. 7, pretreatment KBM + 800 μM TUDCA 2 h, thawing PlasmaLyte R.T. 3 h | Exmp. 7, pretreatment KBM + 2400 μM TUDCA 2 h, thawing PlasmaLyte + IL-2, R.T. 1 h | Exmp. 7, pretreatment KBM + 2400 μM TUDCA 2 h, thawing PlasmaLyte + IL-2, R.T. 1 h, then KBM 2 h | Exmp. 7, pretreatment KBM + 2400 μM TUDCA 2 h, thawing PlasmaLyte + IL-2, R.T. 3 h | Exmp. 7, pretreatment KBM + 2400 μM TUDCA 2 h, thawing PlasmaLyte R.T. 1 h | Exmp. 7, pretreatment KBM + 2400 μM TUDCA 2 h, thawing PlasmaLyte R.T. 1 h, then KBM 2 h | Exmp. 7, pretreatment KBM + 2400 μM TUDCA 2 h, thawing PlasmaLyte R.T. 3 h
